Measured values as given in patent US6444617B1, “Fused-heterocycle dicarboxylic acid diamide derivatives or salts thereof, herbicide and usage thereof” (Nihon Nohyaku Co., Ltd., priority 1998, dated 2002).

Key:
Format in all cases: in vivo
soybean plant = assay: Test Example 4: phytotoxicity to upland crop plants, treatment after emergence; conditions: dosage 5 kg/ha, sprayed after emergence, judged 14 days after treatment
In short: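 Post-emergence foliar spray at a prescribed concentration, applied once the sown weeds and soybean reached defined leaf stages in soil vats; herbicidal effect and soybean injury scored after 14 days.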

wheat = assay: as above; conditions: dosage 5 kg/ha, sprayed after emergence, judged 14 days after treatment
In short: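 Seeds sown in soil and covered. Plants raised to specified leaf stages. Agent with test compound at a prescribed concentration sprayed. Herbicidal effect and crop damage scored after 14 days as weed-killing rate.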

[1] = test system: velvetleaf (Abutilon theophtasti L.), At; assay: Test Example 4: herbicidal effect on upland weeds after emergence; conditions: dosage 5 kg/ha; sprayed after emergence; judged 14 days after treatment
In short: (§1)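 Weeds and soybean grown in soil-filled vats to set leaf stages, then sprayed post-emergence with the compound at a prescribed concentration. Weed-killing rate and crop phytotoxicity judged 14 days after treatment.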

[2] = test system: forxtail grass (Alopecurus aequalis var. amurensis Ohwi), Am; assay: as above; conditions: dosage 5 kg/ha; sprayed after emergence; judged 14 days after treatment
In short: as §1

[3] = test system: cocklebur (Xanthium strumarium L.), Xs; assay: as above; conditions: dosage 5 kg/ha; sprayed after emergence; judged 14 days after treatment
In short: as §1

[4] = test system: barnyard grass (Echinochloa crus-galli Beauv.), Ec; assay: as above; conditions: dosage 5 kg/ha; sprayed after emergence; judged 14 days after treatment
In short: as §1

[5] = test system: bird's eye speedwell (Veronica persica Poir.), Vp; assay: as above; conditions: dosage 5 kg/ha; sprayed after emergence; judged 14 days after treatment
In short: as §1

[6] = test system: cleavers (Galium aparine L.), Ga; assay: as above; conditions: dosage 5 kg/ha; sprayed after emergence; judged 14 days after treatment
In short: as §1

[7] = test system: barnyard grass (Echinochloa crus-galli Beauv.); assay: Test Example 2: herbicidal effect on paddy field weeds after emergence; conditions: Dosage 5 kg/ha; one-leaved stage; 21 days after treatment
In short: (§2)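 Weeds in flooded paddy-soil pots were grown to the one-leaved stage, then the soil was treated with the compound solution at a set dosage.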

[8] = test system: bulrush (Scirpus juncoides Roxb.); assay: as above; conditions: Dosage 5 kg/ha; one-leaved stage; 21 days after treatment
In short: as §2

[9] = test system: monochoria (Monochoria vaginalis Presl); assay: as above; conditions: Dosage 5 kg/ha; one-leaved stage; 21 days after treatment
In short: as §2

[10] = test system: velvetleaf (Abutilon theophtasti L.), At; assay: Test Example 3: herbicidal effect on upland weeds before emergence; conditions: dosage 5 kg/ha
In short: (§3)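 Test compound, formulated as a liquid at a fixed concentration, is sprayed before weed emergence. Two weeks later, kill rate is derived and herbicidal activity is rated.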

[11] = test system: forxtail grass (Alopecurus aequalis var. amurensis Ohwi), Am; assay: as above; conditions: foxtail grass, dosage 5 kg/ha
In short: as §3

[12] = test system: cocklebur (Xanthium strumarium L.), Xs; assay: as above; conditions: dosage 5 kg/ha
In short: as §3

[13] = test system: barnyard grass (Echinochloa crus-galli Beauv.), Ec; assay: as above; conditions: dosage 5 kg/ha
In short: as §3

[14] = test system: bird's eye speedwell (Veronica persica Poir.), Vp; assay: as above; conditions: dosage 5 kg/ha
In short: as §3

[15] = test system: cleavers (Galium aparine L.), Ga; assay: as above; conditions: dosage 5 kg/ha
In short: as §3

soybean plant (So) = assay: Test Example 3: phytotoxicity to upland crop plants, treatment before emergence; conditions: dosage 5 kg/ha
In short: (§4)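 Pre-emergence spray of a liquid preparation at a prescribed compound concentration. Soybean and wheat injury was scored against a phytotoxicity criterion 14 days after treatment, alongside weed control.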

wheat (Wh) = assay: as above; conditions: dosage 5 kg/ha
In short: as §4

[16] = test system: barnyard grass (Echinochloa crus-galli Beauv.); assay: Test Example 1: herbicidal effect on paddy field weeds before emergence; conditions: Dosage 5 kg/ha
In short: (§5)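 Seeds of both weeds, still ungerminated, in soil pots held under paddy conditions received a set dose of test solution as soil treatment. After twenty-one days, control relative to untreated pots was calculated and rated on a scoring scale.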

[17] = test system: bulrush (Scirpus juncoides Roxb.); assay: as above; conditions: Dosage 5 kg/ha
In short: as §5

With CCCNC(=O)c1nc2cc3c(cc2cc1C(=O)Nc1c(CC)ccc(Cl)c1CC)OCO3 [compound 334] the “Phytotoxicity So” value (soybean plant) was 1 (Crop-killing rate is 1-39%.), the “Phytotoxicity Wh” value (wheat) was 2 (Crop-killing rate is 40-69%.) and the “Herbicidal effect At” value [1] was 4 (Weed-killing rate is 90-99%.). The “Herbicidal effect Am” value [2] was 3 (Weed-killing rate is 70-89%.), the “Herbicidal effect Xs” value [3] was 3 (Weed-killing rate is 70-89%.) and the “Herbicidal effect Ec” value [4] was 4 (Weed-killing rate is 90-99%.). The “Herbicidal effect Vp” value [5] was 4 (Weed-killing rate is 90-99%.), the “Herbicidal effect Ga” value [6] was 3 (Weed-killing rate is 70-89%.) and the “Post-emergence treatment Barnyard grass (herbicidal effect)” value [7] was 4 (Weed-killing rate is 90-99%.). For the same compound, the “Post-emergence treatment Bulrush (herbicidal effect)” value [8] was 4 (Weed-killing rate is 90-99%.), the “Post-emergence treatment Monochoria (herbicidal effect)” value [9] was 5 (Weed-killing rate is 100%.) and the “Herbicidal effect At” value [10] was 5 (Weed-killing rate is 100%.). For the same compound, the “Herbicidal effect Am” value [11] was 4 (Weed-killing rate is 90-99%.), the “Herbicidal effect Xs” value [12] was 3 (Weed-killing rate is 70-89%.) and the “Herbicidal effect Ec” value [13] was 4 (Weed-killing rate is 90-99%.). For the same compound, the “Herbicidal effect Vp” value [14] was 4 (Weed-killing rate is 90-99%.), the “Herbicidal effect Ga” value [15] was 3 (Weed-killing rate is 70-89%.) and the “Phytotoxicity So” value (soybean plant (So)) was 0 (Crop-killing rate is 0-20% (No Phytotoxicity).). For the same compound, the “Phytotoxicity Wh” value (wheat (Wh)) was 2 (Crop-killing rate is 40-69%.), the “Pre-emergence treatment Barnyard grass (herbicidal effect)” value [16] was 5 (Weed-killing rate is 100%.) and the “Pre-emergence treatment Bulrush (herbicidal effect)” value [17] was 4 (Weed-killing rate is 90-99%.).
With CCc1ccc(Cl)c(CC)c1NC(=O)c1cc2cc3c(cc2nc1C(=O)NCC(C)C)OCO3 [compound 339] the “Phytotoxicity So” value (soybean plant) was 1 (Crop-killing rate is 1-39%.), the “Phytotoxicity Wh” value (wheat) was 2 (Crop-killing rate is 40-69%.) and the “Herbicidal effect At” value [1] was 4 (Weed-killing rate is 90-99%.). The “Herbicidal effect Am” value [2] was 3 (Weed-killing rate is 70-89%.), the “Herbicidal effect Xs” value [3] was 2 (Weed-killing rate is 40-69%.) and the “Herbicidal effect Ec” value [4] was 4 (Weed-killing rate is 90-99%.). For the same compound, the “Herbicidal effect Vp” value [5] was 4 (Weed-killing rate is 90-99%.), the “Herbicidal effect Ga” value [6] was 2 (Weed-killing rate is 40-69%.) and the “Post-emergence treatment Barnyard grass (herbicidal effect)” value [7] was 3 (Weed-killing rate is 70-89%.). The “Post-emergence treatment Bulrush (herbicidal effect)” value [8] was 2 (Weed-killing rate is 40-69%.), the “Post-emergence treatment Monochoria (herbicidal effect)” value [9] was 4 (Weed-killing rate is 90-99%.) and the “Herbicidal effect At” value [10] was 4 (Weed-killing rate is 90-99%.). The “Herbicidal effect Am” value [11] was 4 (Weed-killing rate is 90-99%.), the “Herbicidal effect Xs” value [12] was 2 (Weed-killing rate is 40-69%.) and the “Herbicidal effect Ec” value [13] was 4 (Weed-killing rate is 90-99%.). The “Herbicidal effect Vp” value [14] was 4 (Weed-killing rate is 90-99%.), the “Herbicidal effect Ga” value [15] was 3 (Weed-killing rate is 70-89%.) and the “Phytotoxicity So” value (soybean plant (So)) was 0 (Crop-killing rate is 0-20% (No Phytotoxicity).). The “Phytotoxicity Wh” value (wheat (Wh)) was 1 (Crop-killing rate is 1-39%.), the “Pre-emergence treatment Barnyard grass (herbicidal effect)” value [16] was 4 (Weed-killing rate is 90-99%.) and the “Pre-emergence treatment Bulrush (herbicidal effect)” value [17] was 3 (Weed-killing rate is 70-89%.).
